In patent US9351955B2, “Compounds and pharmaceutical compositions thereof for the treatment of cystic fibrosis” (Galapagos NV, priority 2013, dated 2016):
Values joined by “and” are separate entries in the source; they are usually repeats but may differ in a detail not shown here. Equal values may be shown once. Read-outs that look alike come from different tables or passages of the source.

Experiments:
Assay type in all cases: cell-based
[1] = biological target: T1, CFTR ΔF508 mutant (Homo sapiens, UniProt P13569, DEL508-508); assay: YFP-halide influx assay for the CFTR-ΔF508 mutation (384 well, CFBE41o- cells, FDSS/μCell); conditions: forskolin 10.67 μM, fluorescence after 36 seconds, read-out: EC50 measured by YFP-halide influx assay for the CFTR-ΔF508
T1 construct: expressed in transfected cells; host or cells: CFBE41o- (adenoviral transduction)
T1 sequence (P13569 with tags, fused parts or gaps DEL508-508): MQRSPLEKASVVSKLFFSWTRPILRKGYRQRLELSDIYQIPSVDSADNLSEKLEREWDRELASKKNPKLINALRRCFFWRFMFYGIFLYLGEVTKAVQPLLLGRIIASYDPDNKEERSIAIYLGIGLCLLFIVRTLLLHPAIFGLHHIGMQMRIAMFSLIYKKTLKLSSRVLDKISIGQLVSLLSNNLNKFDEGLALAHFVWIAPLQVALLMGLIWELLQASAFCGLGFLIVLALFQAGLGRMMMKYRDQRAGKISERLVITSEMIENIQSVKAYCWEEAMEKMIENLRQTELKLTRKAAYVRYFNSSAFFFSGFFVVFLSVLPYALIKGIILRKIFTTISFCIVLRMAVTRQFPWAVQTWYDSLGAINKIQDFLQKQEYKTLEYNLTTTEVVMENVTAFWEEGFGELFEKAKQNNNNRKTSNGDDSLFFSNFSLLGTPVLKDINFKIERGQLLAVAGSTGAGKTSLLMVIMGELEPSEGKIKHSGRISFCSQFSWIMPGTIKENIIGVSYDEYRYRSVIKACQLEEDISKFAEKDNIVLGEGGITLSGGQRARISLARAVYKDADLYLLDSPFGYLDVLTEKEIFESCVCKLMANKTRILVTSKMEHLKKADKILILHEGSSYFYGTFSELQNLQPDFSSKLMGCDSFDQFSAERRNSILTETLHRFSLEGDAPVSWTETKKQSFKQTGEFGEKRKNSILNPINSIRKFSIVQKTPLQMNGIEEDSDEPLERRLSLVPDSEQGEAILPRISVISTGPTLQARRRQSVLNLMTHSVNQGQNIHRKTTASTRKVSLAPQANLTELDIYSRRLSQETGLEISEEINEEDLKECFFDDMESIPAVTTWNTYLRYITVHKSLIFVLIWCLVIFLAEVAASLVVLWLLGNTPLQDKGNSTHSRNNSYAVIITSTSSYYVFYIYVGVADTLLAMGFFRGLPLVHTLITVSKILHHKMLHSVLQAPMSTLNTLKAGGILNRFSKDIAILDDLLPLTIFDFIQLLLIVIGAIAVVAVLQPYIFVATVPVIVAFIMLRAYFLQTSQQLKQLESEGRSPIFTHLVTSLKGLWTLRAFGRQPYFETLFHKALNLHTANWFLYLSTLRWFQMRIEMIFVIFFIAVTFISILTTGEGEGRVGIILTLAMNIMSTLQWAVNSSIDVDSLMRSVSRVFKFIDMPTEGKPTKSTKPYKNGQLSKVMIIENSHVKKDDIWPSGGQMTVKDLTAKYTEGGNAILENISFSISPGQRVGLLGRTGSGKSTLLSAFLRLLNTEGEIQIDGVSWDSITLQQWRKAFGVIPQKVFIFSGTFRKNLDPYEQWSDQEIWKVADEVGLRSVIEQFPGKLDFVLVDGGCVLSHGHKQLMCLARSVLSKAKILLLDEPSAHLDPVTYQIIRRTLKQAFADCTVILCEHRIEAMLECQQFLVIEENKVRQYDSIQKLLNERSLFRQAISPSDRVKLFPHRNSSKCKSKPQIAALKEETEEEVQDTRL
Outline: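 CFBE41o- cells were adenovirally transduced with ΔF508 CFTR and the YFP H148Q/I152L reporter. Cells were then held 24 h at 27 °C or treated 24 h at 37 °C with a CFTR modulator. Iodide-induced quench was recorded for 2 min, and EC50 was derived from 1−F/F0 at 36 s against compound concentration.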

[2] = biological target: T2, CFTR-G178R (Homo sapiens, UniProt P13569, G178R); assay: YFP-halide influx assay for the CFTR-G178R; conditions: read-out: EC50 measured by YFP-halide influx assay for the CFTR-G178R
T2 construct: expressed in transfected cells
T2 sequence (P13569 whole entry G178R): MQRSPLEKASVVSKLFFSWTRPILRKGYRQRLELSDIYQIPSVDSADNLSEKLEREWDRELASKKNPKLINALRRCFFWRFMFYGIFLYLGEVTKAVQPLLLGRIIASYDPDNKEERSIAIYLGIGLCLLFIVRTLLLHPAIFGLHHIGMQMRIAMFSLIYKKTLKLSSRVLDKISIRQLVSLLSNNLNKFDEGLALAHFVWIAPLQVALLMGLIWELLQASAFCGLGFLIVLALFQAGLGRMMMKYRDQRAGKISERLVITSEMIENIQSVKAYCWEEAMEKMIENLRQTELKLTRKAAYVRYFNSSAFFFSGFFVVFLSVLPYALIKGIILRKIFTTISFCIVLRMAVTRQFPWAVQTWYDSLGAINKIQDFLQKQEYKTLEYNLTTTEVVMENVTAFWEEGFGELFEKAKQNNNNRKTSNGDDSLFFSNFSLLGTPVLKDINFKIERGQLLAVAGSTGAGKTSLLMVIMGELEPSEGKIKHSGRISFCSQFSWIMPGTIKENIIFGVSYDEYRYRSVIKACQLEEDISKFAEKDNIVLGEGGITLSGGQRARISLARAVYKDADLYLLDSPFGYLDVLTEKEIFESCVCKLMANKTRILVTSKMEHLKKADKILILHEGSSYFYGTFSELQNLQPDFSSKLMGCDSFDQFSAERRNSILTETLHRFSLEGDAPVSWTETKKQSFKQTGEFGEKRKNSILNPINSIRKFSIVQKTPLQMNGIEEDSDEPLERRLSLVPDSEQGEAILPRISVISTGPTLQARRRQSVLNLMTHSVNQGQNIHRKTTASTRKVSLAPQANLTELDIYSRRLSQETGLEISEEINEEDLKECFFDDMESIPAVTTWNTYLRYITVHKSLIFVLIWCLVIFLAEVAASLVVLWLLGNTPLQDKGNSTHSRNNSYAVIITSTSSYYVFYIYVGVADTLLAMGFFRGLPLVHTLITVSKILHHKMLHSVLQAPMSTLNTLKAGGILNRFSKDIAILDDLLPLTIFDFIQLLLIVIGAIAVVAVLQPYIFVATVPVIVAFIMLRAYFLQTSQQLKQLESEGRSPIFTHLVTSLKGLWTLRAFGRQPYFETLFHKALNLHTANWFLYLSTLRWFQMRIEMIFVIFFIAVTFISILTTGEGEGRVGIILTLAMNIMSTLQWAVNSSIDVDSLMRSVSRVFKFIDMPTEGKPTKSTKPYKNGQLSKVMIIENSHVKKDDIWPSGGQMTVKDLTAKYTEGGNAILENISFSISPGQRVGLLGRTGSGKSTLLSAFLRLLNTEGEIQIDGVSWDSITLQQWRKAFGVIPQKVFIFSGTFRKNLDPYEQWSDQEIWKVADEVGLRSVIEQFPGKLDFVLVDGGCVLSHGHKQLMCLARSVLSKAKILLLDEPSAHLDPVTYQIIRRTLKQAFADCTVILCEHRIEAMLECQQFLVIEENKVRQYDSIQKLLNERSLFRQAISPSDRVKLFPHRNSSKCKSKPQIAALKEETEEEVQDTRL
From the text: (§1) The YFP halide influx assay measures the functionality of the cystic fibrosis Transmembrane Conductance regulator (CFTR) channels. The assay is used to evaluate the capacity of compounds to increase the channel opening of existing mutant CFTR channels in the membrane. It makes use of the observation that the yellow fluorescent protein (YFP) variant YFP H148Q, I152L, F47L has its fluorescence substantially quenched by halide ions like Cl^− and I^−. (Galietta et al., 2001)
(§2) For this purpose, HEK293-cells are seeded in 96 well plates. During seeding, the cells are reverse-transfected with plasmid vectors that direct the expression of the CFTR G551D mutant and of the YFP reporter. Cells are incubated at 37° C., 5% CO2 for 24 hours so as to allow for sufficient expression of the CFTR protein.
(§3) The I^−-induced quenching of fluorescence is recorded immediately after injection of I^− for 7 seconds. The capacity of a compound to increase the channel opening is directly correlated with the decrease in fluorescence, and is expressed as (1−(fluorescence after 7 seconds (F)/fluorescence before injection (F0))) and an EC50 can be derived from a (1−F/F0) vs compound concentration plot.
(§4) Similar YHA assays were developed for other channel gating defective or channel conductance defective CFTR mutants to determine effect of compound on channel activity. Examples of mutants are G178R, G1349D, S549N, R117H, R334W. This assay is also used for additional class I CFTR mutants, including G542X, W1282X; class II mutants including N1303K, and for class III mutants including S1251N; or wild-type CFTR.

[3] = biological target: T3, CFTR-G1349D (Homo sapiens, UniProt P13569, G1349D); assay: YFP-halide influx assay for the CFTR-G1349D; conditions: CFTR-G1349D mutant; read-out: EC50 measured by YFP-halide influx assay for the CFTR-G1349D
T3 construct: expressed in transfected cells
T3 sequence (P13569 whole entry G1349D): as the sequence (P13569 whole entry G178R) above, with R178G, G1349D counted along it
From the text: as §1, §2, §3, §4

[4] = biological target: T4, CFTR-S549N (Homo sapiens, UniProt P13569, S549N); assay: YFP-halide influx assay for the CFTR-S549N; conditions: CFTR-S549N mutant; read-out: EC50 measured by YFP-halide influx assay for the CFTR-S549N
T4 construct: expressed in transfected cells
T4 sequence (P13569 whole entry S549N): as the sequence (P13569 whole entry G178R) above, with R178G, S549N counted along it
From the text: as §1, §2, §3, §4

[5] = biological target: T5, CFTR-R117H (Homo sapiens, UniProt P13569, R117H); assay: YFP-halide influx assay for the CFTR-R117H; conditions: CFTR-R117H mutant; read-out: EC50 measured by YFP-halide influx assay for the CFTR-R117H
T5 construct: expressed in transfected cells
T5 sequence (P13569 whole entry R117H): as the sequence (P13569 whole entry G178R) above, with R117H, R178G counted along it
From the text: as §1, §2, §3, §4

[6] = biological target: T1, CFTR ΔF508 mutant; assay: YFP-halide influx assay for the CFTR-ΔF508 mutation (96 well, CFBE41o- cells); conditions: read-out: EC50 measured by YFP-halide influx assay for the CFTR-ΔF508
From the text: 6.1. YFP-Halide Influx Assay for the CFTR-ΔF508 Mutation
as §1, with “channels in the cystic fibrosis bronchial epithelium cell line CFBE41o-.” for “channels.”, “open probability” for “channel opening”, “existing” for “existing mutant”, “I152L” for “I152L, F47L”, “2001; Nagai et al., 2002)” for “2001)”
For this purpose, CFBE410-cells are seeded in 96 well plates (6000 CFBE cells/well). One day after seeding, the CFBE cells are transduced with adenoviral vectors that direct the expression of the CFTR ΔF508 mutant and of the YFP reporter. Cells are incubated at 27° C., 5% CO2 for 24 hours so as to allow for the proper folding and migration to the membrane of the CFTR channel or treated with a CFTR modulator during 24 h at 37° C.
as §3, with “[…]” for “I^−-induced”, “(1-(fluorescence” for “(1−(fluorescence”

[7] = biological target: T6, CFTR G551D mutant (Homo sapiens, UniProt P13569, G551D); assay: YFP-halide influx assay for the CFTR-G551D mutation (HEK293 cells); conditions: read-out: EC50 measured by YFP-halide influx assay for the CFTR-G551D
T6 construct: expressed in transfected cells; host or cells: HEK293 (reverse transfection with plasmids)
T6 sequence (P13569 whole entry G551D): as the sequence (P13569 whole entry G178R) above, with R178G, G551D counted along it
Outline: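 HEK293 cells reverse-transfected with CFTR G551D and halide-sensitive YFP, expressed 24 h at 37 °C. Iodide-induced fluorescence quench recorded for 7 s after I^− injection; response as 1−F/F0, EC50 from concentration plot.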

[8] = biological target: T7, CFTR ΔF508 (Homo sapiens, UniProt P13569, DEL508-508); assay: TECC assay, primary bronchial epithelial cells from CF patients homozygous for CFTR ΔF508; conditions: for ΔIsc / Current increase: TECC assay; for Current increase: compound at 50 nM, difference between ΔIsc with compound and ΔIsc DMSO (baseline); for activity on the CFTR protein in TECC assay (ΔISC vs DMSO baseline): at 3 μM, or 50 nM, or 50/100/200 nM; for EC50: primary bronchial epithelial cells, CFTR ΔF508, several values in a cell = repeat determinations
T7 construct: host or cells: primary bronchial epithelial cells from CF patients homozygous for ΔF508, pre-treated with VX809
T7 sequence (P13569 with tags, fused parts or gaps DEL508-508): as the sequence (P13569 with tags, fused parts or gaps DEL508-508) above
Method: 7.2.1. Primary Bronchial Epithelial Cells Protocol
The TECC (Tranepithelial Clamp Circuit, EP-design) assay measures the functionality of the cystic fibrosis Transmembrane Conductance regulator (CFTR) by measuring the short circuit current (ISC) generated over the basolateral and apical membrane of lung epithelial cells. In TECC the transepithelial potential PD and transepithelial resistance (Rt) are measured in an open circuit and transformed to ISC using Ohm's law. 24 wells can be measured simultaneously allowing a higher throughput compared to Ussing chambers.
For this purpose, bronchial epithelial cells isolated from CF patients homozygous for the CFTR ΔF508 mutation (hAEC-CF, Epithelix) are plated on type IV collagen-coated Transwell supports (Costar). Human airway epithelia are generated by provision of an air-liquid interface for 21 days to form well-differentiated polarized cultures that resemble in vivo pseudo-stratified ciliated epithelium (Fulcher et al., 2005). In the case of the homozygous ΔF508 CFTR samples, the differentiated cells are treated with 3 μM VX809 (2626 South Loop West, Suite 225, Houston, Tex. 77054 USA, Cat n#51565) to allow sufficient expression of properly folded CFTR protein on the membrane (48 hours basolateral treatment and 24 hours apical treatment), prior to electrophysiological recordings. […] G551D/ΔF508, differentiated cells are used as such for the recordings.
Information on the compounds can be retrieved on the homozygous ΔF508 CFTR samples looking at increased CFTR activity when compounds are added in an acute mode or in a chronic mode. On G551D/ΔF508 CFTR heterozygous samples compounds are added in an acute mode to the differentiated cells.
For the acute mode, for electrophysiological recording, the human airway epithelia are mounted in the TECC heating plate for electrophysiological measurement and kept at 37° C. The epithelia are bathed in a NaCl-Ringer solution (120 mM NaCl, 25 mM NaHCO3, 1.2 mM CaCl2, 1.2 mM MgCl2, 0.8 mM KH2PO4, 0.8 mM K2HPO4, pH 7.4, 5 mM glucose) on both the basolateral and apical sides. Apical amiloride is used to inhibit the endogenous ENaC currents while forkolin is applied on both apical and basolateral side to stimulate CFTR. After forskolin triggering, compounds are added on both sides to test their potential for increasing CFTR gating. Measurements are done during a 20 minute timeframe with recordings every 2 minutes. The increase in ISC is used as a measure for the increased CFTR activity, EC50 values can be generated by measuring impact of different concentrations of compound on ISC on primary cells, for this purpose each transwell is treated with a different compound concentration. Inh-172, an inhibitor specific for CFTR, is used to test the specificity of the tested compounds.
For the chronic mode, the differentiated cells are treated with 3 μM VX809 (2626 South Loop West, Suite 225, Houston, Tex. 77054 USA, Cat n#51565) and potentiator compounds at different concentrations (48 hours basolateral treatment and 24 hours apical treatment), prior to electrophysiological recordings. For electrophysiological recording, the human airway epithelia are mounted in the TECC heating plate for electrophysiological measurement and kept at 37° C. […]

[9] = comparative compounds, HEK293 cells
[10] = compounds of the invention, 96 well, forskolin 10.67 μM
[11] = HEK293 cells expressing CFTR G551D and YFP reporter, forskolin 10.67 μM

Compound | EC50 [1] [nM] | EC50 ([6]; comparative compounds) [nM] | ΔIsc ([8]; compound at 50 nM (Table XV)) [μA/cm^2] | ΔIsc ([8]; compound at 50 nM (Table XVI)) [μA/cm^2] | Current increase [8] [μA/cm^2] | ΔIsc ([8]; compound at 100 nM (Table XVI)) [μA/cm^2] | ΔIsc ([8]; compound at 200 nM (Table XVI)) [μA/cm^2] | activity on the CFTR protein in TECC assay (ΔISC vs DMSO baseline) [8] | also measured
CC(C)C(O)C(=O)Nc1sc2c(c1C(N)=O)CC(C)(C)OC2(C)C (single isomer, unassigned) [Compound 52, 2-[[2-hydroxy-3-methyl-butanoyl]amino]-5,5,7,7-tetramethyl-4H-thieno[2,3-c]pyran-3-carboxamide] | 1.97 |  |  |  |  |  |  |  | EC50 [2]: 39.7 nM; EC50 [3]: 60.9 nM; EC50 [4]: 86.5 nM; EC50 [5]: 11.4 nM
CN1CCc2c(sc(NC(=O)c3ccccc3O)c2C(N)=O)C1 [A, 2-(2-hydroxybenzamido)-6-methyl-4,5,6,7-tetrahydrothieno[2,3-c]pyridine-3-carboxamide, reference compound] |  | > 10000 | −0.3248 | −0.3807 | −0.0559 | −0.5401 | −0.6598 | no such activity | EC50 [7, 9]: > 10000 nM
NC(=O)c1c(NC(=O)c2ccccc2Cl)sc2c1CCCC2 [B, 2-(2-chlorobenzamido)-4,5,6,7-tetrahydrobenzo[b]thiophene-3-carboxamide, reference compound] |  | < 370 | 0.1807 | 0.1807 | 0.5055 | 0.4762 | 0.8022 | no such activity | 
CC1(C)Cc2c(sc(NC(=O)C(C)(C)O)c2C(N)=O)C(C)(C)O1 [Compound 6, 2-(2-hydroxy-2-methylpropanamido)-5,5,7,7-tetramethyl-5,7-dihydro-4H-thieno[2,3-c]pyran-3-carboxamide] | 16.2 |  |  |  |  |  |  |  | EC50 [6, 10]: 75.8 nM; EC50 [8]: 165 nM and 60.9 nM
CC1(C)Cc2c(sc(NC(=O)c3ccc(F)cc3O)c2C(N)=O)C(C)(C)O1 [Compound 21, 2-(4-fluoro-2-hydroxybenzamido)-5,5,7,7-tetramethyl-5,7-dihydro-4H-thieno[2,3-c]pyran-3-carboxamide] | 0.71 |  |  |  |  |  |  |  | EC50 [6, 10]: 6.46 nM; EC50 [7, 11]: 57.5 nM; EC50 [8]: 16.3 nM
CC1(C)Cc2c(sc(NC(=O)c3ccnn3COP(=O)(O)O)c2C(N)=O)C(C)(C)O1 [Compound 92, [5-[(3-carbamoyl-5,5,7,7-tetramethyl-4H-thieno[2,3-c]pyran-2-yl)carbamoyl]pyrazol-1-yl]methyl dihydrogen phosphate] |  |  |  |  |  |  |  |  | EC50 [2]: 82.2 nM
CC1(C)Cc2c(sc(NC(=O)c3n[nH]cc3C3COCCO3)c2C(N)=O)C(C)(C)O1 (centres unmarked) [Compound 95, N-(3-carbamoyl-5,5,7,7-tetramethyl-4H-thieno[2,3-c]pyran-2-yl)-4-(1,4-dioxan-2-yl)-1H-pyrazole-3-carboxamide] | 24.5 |  |  |  |  |  |  |  | EC50 [7, 11]: 1060 nM; EC50 [3]: 81.4 nM; EC50 [4]: 291 nM; EC50 [5]: 106 nM
NC(=O)c1c(NC(=O)c2cc[nH]n2)sc2c1CCOC2 [E, N-(3-carbamoyl-5,7-dihydro-4H-thieno[2,3-c]pyran-2-yl)-1H-pyrazole-3-carboxamide, reference compound] |  | 479 | 0.1663 | 0.1663 | 0.4911 | −0.0318 | 0.5241 | no such activity | EC50 [7, 9]: 2900 nM
